Assay results: publication PMC12155096 (International Journal of Molecular Sciences, 2025)
Counter-ions that a name gives are not always drawn. Like-named read-outs stand apart in the source and are kept apart here.

Key:
human CYP1A2 [1] = molecular target: T1, human CYP1A2 (Homo sapiens, UniProt P05177); settings: human
T1 sequence (P05177 1-516): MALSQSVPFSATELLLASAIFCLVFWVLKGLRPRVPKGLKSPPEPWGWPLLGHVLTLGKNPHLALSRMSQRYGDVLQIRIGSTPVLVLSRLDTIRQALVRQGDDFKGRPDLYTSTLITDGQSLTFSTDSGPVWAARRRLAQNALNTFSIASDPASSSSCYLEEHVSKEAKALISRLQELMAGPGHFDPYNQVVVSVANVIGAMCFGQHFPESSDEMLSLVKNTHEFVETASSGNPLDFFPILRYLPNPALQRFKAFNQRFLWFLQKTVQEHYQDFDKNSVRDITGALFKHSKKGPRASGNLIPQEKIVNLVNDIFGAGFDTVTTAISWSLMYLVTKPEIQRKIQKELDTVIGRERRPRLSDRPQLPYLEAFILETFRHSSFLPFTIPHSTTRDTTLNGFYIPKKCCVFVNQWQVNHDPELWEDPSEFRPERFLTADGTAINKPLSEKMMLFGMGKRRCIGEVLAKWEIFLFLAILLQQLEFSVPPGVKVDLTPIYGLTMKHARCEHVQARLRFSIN

human CYP2C9 [2] = molecular target: T2, human CYP2C9 (Homo sapiens, UniProt P11712); settings: human
human CYP2C19 [3] = molecular target: T3, human CYP2C19 (Homo sapiens, UniProt P33261); settings: human
human CYP2D6 [4] = molecular target: T4, human CYP2D6 (Homo sapiens, UniProt P10635); settings: human
human CYP1A2 [5] = molecular target: T1, human CYP1A2; test: biochemical
human CYP2C9 [6] = molecular target: T2, human CYP2C9; test: biochemical
human CYP2C19 [7] = molecular target: T3, human CYP2C19; test: biochemical
human CYP2D6 [8] = molecular target: T4, human CYP2D6; test: biochemical
[9] = CYP1A2 IC50 (half-maximal inhibitory concentration)
[10] = CYP2C9 IC50 (half-maximal inhibitory concentration)
[11] = CYP2C19 IC50 (half-maximal inhibitory concentration)
[12] = CYP2D6 IC50 (half-maximal inhibitory concentration)

T2 sequence (P11712 whole entry): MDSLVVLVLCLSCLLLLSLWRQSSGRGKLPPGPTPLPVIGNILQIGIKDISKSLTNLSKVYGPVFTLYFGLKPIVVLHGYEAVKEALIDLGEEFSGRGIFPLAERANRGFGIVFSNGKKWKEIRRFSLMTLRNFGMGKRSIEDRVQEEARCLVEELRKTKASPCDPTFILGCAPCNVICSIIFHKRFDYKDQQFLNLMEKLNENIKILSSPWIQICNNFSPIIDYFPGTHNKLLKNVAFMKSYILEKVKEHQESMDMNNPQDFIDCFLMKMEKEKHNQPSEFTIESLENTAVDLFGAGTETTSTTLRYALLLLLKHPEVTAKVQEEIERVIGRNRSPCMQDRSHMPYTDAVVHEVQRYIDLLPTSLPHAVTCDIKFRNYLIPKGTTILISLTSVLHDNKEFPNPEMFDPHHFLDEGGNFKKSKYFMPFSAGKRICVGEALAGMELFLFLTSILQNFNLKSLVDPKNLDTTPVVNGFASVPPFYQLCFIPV
T3 sequence (P33261 whole entry): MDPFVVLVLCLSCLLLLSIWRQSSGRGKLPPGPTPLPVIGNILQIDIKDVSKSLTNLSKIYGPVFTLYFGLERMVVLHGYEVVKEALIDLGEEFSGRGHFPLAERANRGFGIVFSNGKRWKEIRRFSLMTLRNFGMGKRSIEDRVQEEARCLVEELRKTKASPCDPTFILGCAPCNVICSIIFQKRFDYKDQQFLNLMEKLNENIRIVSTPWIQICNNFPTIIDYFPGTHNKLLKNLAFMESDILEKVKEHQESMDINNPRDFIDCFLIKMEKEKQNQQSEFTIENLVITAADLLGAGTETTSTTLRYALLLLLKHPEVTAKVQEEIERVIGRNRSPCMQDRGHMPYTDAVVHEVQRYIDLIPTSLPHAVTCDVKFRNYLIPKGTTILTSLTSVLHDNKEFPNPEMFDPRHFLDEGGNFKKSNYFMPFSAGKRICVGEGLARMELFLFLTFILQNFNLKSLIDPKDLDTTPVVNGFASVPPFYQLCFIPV
T4 sequence (P10635 whole entry): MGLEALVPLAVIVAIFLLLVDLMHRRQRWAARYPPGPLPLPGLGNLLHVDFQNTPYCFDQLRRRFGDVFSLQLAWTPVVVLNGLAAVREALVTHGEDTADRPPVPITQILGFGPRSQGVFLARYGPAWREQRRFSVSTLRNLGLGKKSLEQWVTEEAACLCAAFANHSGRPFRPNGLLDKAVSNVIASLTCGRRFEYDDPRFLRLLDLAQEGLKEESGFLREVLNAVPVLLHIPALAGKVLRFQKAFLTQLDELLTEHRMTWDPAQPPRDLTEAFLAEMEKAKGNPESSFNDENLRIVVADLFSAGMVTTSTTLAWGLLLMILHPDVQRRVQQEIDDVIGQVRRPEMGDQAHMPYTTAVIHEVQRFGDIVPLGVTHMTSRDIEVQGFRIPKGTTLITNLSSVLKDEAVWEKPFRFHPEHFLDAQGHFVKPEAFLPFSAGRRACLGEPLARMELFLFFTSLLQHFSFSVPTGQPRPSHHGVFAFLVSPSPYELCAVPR

| SMILES | CYP1A2 Efficacy (in parenthesis) (human CYP1A2 [1]) | CYP2C9 Efficacy (in parenthesis) (human CYP2C9 [2]) | CYP2C19 Efficacy (in parenthesis) (human CYP2C19 [3]) | CYP2D6 Efficacy (in parenthesis) (human CYP2D6 [4]) | IC50 (human CYP1A2 [5]; [9]) [µM] | IC50 (human CYP2C9 [6]; [10]) [µM] | IC50 (human CYP2C19 [7]; [11]) [µM] | IC50 (human CYP2D6 [8]; [12]) [µM] | IC50 (human CYP2C9 [6]) [µM] | IC50 (human CYP2D6 [8]) [µM] | other results |
| --- | --- | --- | --- | --- | --- | --- | --- | --- | --- | --- | --- |
| O=S(=O)(c1ccc(Cl)cc1)c1ccc(Cl)cc1 [4,4'-Dichlorodiphenyl sulfone] | 36.17 ± 4.16 (-44 ± 9) % | 31.35 ± 2.66 (-52 ± 4) % | 0.34 ± 0.1 (-146 ± 11) % | 40.58 ± 4.66 (-51 ± 10) % | 36.2 | 31.4 | 0.34 | 40.6 |  |  |  |
| c1ccc(-c2ccc(C(c3ccccc3)n3ccnc3)cc2)cc1 (centres unmarked) [Bifonazole] | 5.3 ± 0.35 (-105 ± 4) % | 0.25 ± 0.05 (-104 ± 3) % | 0.47 ± 0.14 (-136 ± 18) % | 1.82 ± 0.33 (-107 ± 6) % | 5.3 | 0.25 | 0.47 | 1.82 |  |  |  |
| Clc1ccc(CCC(Cn2ccnc2)Sc2c(Cl)cccc2Cl)cc1 (centres unmarked) [Butoconazole nitrate] | 16.12 ± 1.09 (-93 ± 6) % | 0.1 ± 0.02 (-98 ± 4) % | 0.04 ± 0.0 (-132 ± 17) % | 2.37 ± 0.15 (-100 ± 5) % | 16.1 | 0.1 | 0.04 | 2.37 |  |  |  |
| CCOP(=S)(OCC)SCSc1ccc(Cl)cc1 [Carbophenothion] | 8.84 ± 2.46 (-90 ± 2) % | 1.13 ± 0.13 (-94 ± 12) % | 0.47 ± 0.18 (-138 ± 5) % | 13.25 ± 2.38 (-84 ± 7) % | 8.84 |  | 0.47 |  | 1.13 | 13.2 |  |
| COC(=O)c1c(Cl)c(Cl)c(C(=O)OC)c(Cl)c1Cl [Chlorthal-dimethyl] |  |  |  |  |  |  |  |  | 1.43 | 45 | CYP2D6 Efficacy (in parenthesis) (human CYP2D6 [4]; 1 h): 44.96 ± 16.37 (-48 ± 8) %; AC50 (human CYP1A2 [5]): 0.29 µM; IC50 (human CYP1A2 [5]): 0.21 µM; AC50 (human CYP2C9 [6]): 1.46 µM; AC50 (human CYP2C19 [7]): 21.8 µM; IC50 (human CYP2C19 [7]): 20.7 µM |
| CCOP(=S)(OCC)Oc1ccc2c(C)c(Cl)c(=O)oc2c1 [Coumaphos] | 3.5 ± 0.6 (-95 ± 2) % | 0.28 ± 0.02 (-103 ± 5) % | 0.32 ± 0.04 (-144 ± 23) % | 5.34 ± 0.96 (-101 ± 7) % | 3.5 |  | 0.32 |  | 0.28 | 5.34 |  |
| CC[N+](CC)(CC(=O)Nc1c(C)cccc1C)Cc1ccccc1 [Denatonium benzoate] | 38.47 ± 2.51 (-59 ± 16) % |  | 38.47 ± 2.51 (-100 ± 4) % | 0.01 ± 0 (-107 ± 7) % | 38.5 |  | 38.5 | 0.01 |  |  |  |
| O=C1c2ccccc2C(=O)C1C(=O)C(c1ccccc1)c1ccccc1 [Diphacinone] | 28.28 ± 11.08 (-93 ± 7) % | 0.53 ± 0.74 (-101 ± 4) % | 34.81 ± 11.45 (-80 ± 23) % | 32.29 ± 4.12 (-49 ± 4) % | 28.3 | 0.53 | 34.8 | 32.3 |  |  | IC50 (human CYP2C9 [6]; IC50 CYP2C9 assay): 0.5 µM |
| CN(C)C(=O)Nc1ccc(Cl)c(Cl)c1 [Diuron] | 0.86 ± 0.12 (-103 ± 3) % | 69.41 ± 26.11 (-48 ± 19) % | 39.45 ± 16.91 (-98 ± 5) % | 42.09 ± 18.16 (-73 ± 17) % | 0.86 | 69.4 | 39.5 | 42.1 |  |  |  |
| Clc1ccc(COC(Cn2ccnc2)c2ccc(Cl)cc2Cl)cc1 (centres unmarked) [Econazole nitrate] | 1.18 ± 0.6 (-104 ± 2) % |  | 0.15 ± 0.02 (-152 ± 3) % | 0.4 ± 0.23 (-105 ± 10) % | 1.18 |  | 0.15 | 0.4 |  |  |  |
| Clc1ccc(C(Cn2ccnc2)OCc2ccc(Sc3ccccc3)cc2)c(Cl)c1 (centres unmarked) [Fenticonazole nitrate] | 16.12 ± 1.09 (-89 ± 8) % | 2.99 ± 0.41 (-103 ± 6) % | 2.65 ± 0.17 (-137 ± 20) % | 0.37 ± 0.02 (-82 ± 4) % |  |  |  |  | 2.99 ± 0.41 | 0.37 ± 0.02 | IC50 (human CYP1A2 [5]): 16.1 ± 1.09 µM; IC50 (human CYP2C19 [7]): 2.65 ± 0.17 µM |
| CC(C)=CCOc1c2occc2cc2ccc(=O)oc12 [Imperatorin] | 0.42 ± 0.17 (-97 ± 12) % | 0.62 ± 0.07 (-96 ± 6) % | 4.36 ± 0.0 (-126 ± 1) % | 4.72 ± 0.31 (-110 ± 6) % | 0.42 | 0.62 | 4.36 | 4.72 |  |  |  |
| CC(C)[N+](C)(CCC(C(N)=O)(c1ccccc1)c1ccccc1)C(C)C [Isopropamide] | 30.41 ± 7.39 (-70 ± 30) % | 33.31 ± 14 (-72 ± 28) % | 35.59 ± 11.39 (-61 ± 21) % | 0.7 ± 0.32 (-99 ± 8) % | 30.4 | 33.3 | 35.6 | 0.7 |  |  |  |
| N#C/C(=C1/SCC(c2ccccc2Cl)S1)n1ccnc1 (centres unmarked) [Lanoconazole] |  |  |  |  |  |  |  |  | 2.77 ± 0.32 | 2.58 ± 0.46 | CYP2D6 Efficacy (in parenthesis) (human CYP2D6 [4]; 1 h): 2.58 ± 0.46 (-102 ± 1) %; IC50 (human CYP1A2 [5]): 0.87 ± 0.1 µM; IC50 (human CYP2C19 [7]): 0.12 ± 0.05 µM |
| Clc1cccc(C(c2ccc3[nH]cnc3c2)n2ccnc2)c1 (centres unmarked) [Liarozole] |  |  |  |  |  |  |  |  | 11.2 ± 2.55 | 31 ± 3.57 | CYP2D6 Efficacy (in parenthesis) (human CYP2D6 [4]; 1 h): 31.04 ± 3.57 (-56 ± 13) %; IC50 (human CYP1A2 [5]): 16.8 ± 1.09 µM; IC50 (human CYP2C19 [7]): 7.61 ± 4.78 µM |
| O=C1N(c2ccccc2)c2ccccc2C1(Cc1ccncc1)Cc1ccncc1 [Linopirdine] | 24.14 ± 9.56 (-50 ± 8) % | 3.04 ± 0.74 (-95 ± 5) % | 1.71 ± 1.07 (-136 ± 7) % | 20.69 ± 9.02 (-61 ± 27) % |  |  |  |  | 3.04 ± 0.74 | 20.7 ± 9.02 | IC50 (human CYP1A2 [5]): 24.1 ± 9.56 µM; IC50 (human CYP2C19 [7]): 1.71 ± 1.07 µM |
| CCN(CC)Cc1nccn1-c1ccc([N+](=O)[O-])cc1C(=O)c1ccccc1Cl [Nizofenone] |  |  |  |  |  |  |  |  | 25.1 | 2.98 | CYP2D6 Efficacy (in parenthesis) (human CYP2D6 [4]; 1 h): 2.98 ± 0.19 (-103 ± 6) %; IC50 (human CYP1A2 [5]): 19.8 µM; IC50 (human CYP2C19 [7]): 18.8 µM |
| C/C(=C(/OCCOc1ccc(Cl)cc1)c1ccc(Cl)cc1Cl)n1ccnc1 [Omoconazole] |  |  |  |  |  |  |  |  | 0.87 ± 0.1 | 1.67 ± 0.11 | IC50 (human CYP1A2 [5]): 2.5 ± 0.24 µM; IC50 (human CYP2C19 [7]): 0.92 ± 0.4 µM |
| CCCCCC(C=O)=Cc1ccccc1 [Pentylcinnamaldehyde] |  |  |  |  |  |  |  |  |  |  | AC50 (human CYP1A2 [5]; CYP1A2 AC50 (half-maximal activity concentration)): 29.1 µM; AC50 (human CYP2C9 [6]; CYP2C9 AC50 (half-maximal activity concentration)): 37 µM; AC50 (human CYP2C19 [7]; CYP2C19 AC50 (half-maximal activity concentration)): 30.2 µM; AC50 (human CYP2D6 [8]; CYP2D6 AC50 (half-maximal activity concentration)): 49.4 µM |
| COP(=S)(OC)SCN1C(=O)c2ccccc2C1=O [Phosmet] |  |  |  |  | 6.92 |  | 0.47 |  | 2.04 | 24.6 |  |
| CNC(=O)Oc1ccc2c(c1)[C@]1(C)CCN(C)[C@@H]1N2C [Physostigmine] |  |  |  |  | 55.4 | 80 | 45.4 | 0.59 |  |  |  |
| CCCCOCCOCCOCc1cc2c(cc1CCC)OCO2 [Piperonyl butoxide] |  |  |  |  | 1.03 | 0.65 | 0.5 | 6.78 |  |  |  |
| CC(=O)SCC(Cc1ccccc1)C(=O)NCC(=O)OCc1ccccc1 (centres unmarked) [Racecadotril] |  |  |  |  | 15.1 | 3.34 | 0.64 | 1.24 |  |  |  |
| C[C@]12Cc3c[nH]nc3C[C@@H]1CC[C@@H]1[C@@H]2CC[C@@]2(C)[C@H]1CC[C@]2(C)O [Stanozolol] |  |  |  |  | 21.5 | 0.94 | 0.55 | 10.8 |  |  |  |
| CCCc1c(OCCCCc2nnn[nH]2)ccc(C(C)=O)c1O [Tomelukast] |  |  |  |  | 54.3 | 0.15 | 0.15 | 31.7 |  |  |  |
| CC(C)(C)C(O)C(Oc1ccc(Cl)cc1)n1cncn1 (centres unmarked) [Triadimenol] |  |  |  |  | 33.6 | 34.4 | 1.38 | 65.1 |  |  |  |
| O[C@@H](COc1cccc2ncccc12)CN1CCN([C@@H]2c3ccccc3[C@@H]3[C@H](c4ccccc42)C3(F)F)CC1 [Zosuquidar trihydrochloride] |  |  |  |  | 15.5 | 9.14 | 20.4 | 15.2 |  |  |  |
